This assay deals with T1, human Nox4 (Homo sapiens, UniProt Q9NPH5).
T1 construct: expressed in transfected cells; host or cells: T-REx-293 (hNOX4 T-REx-293), tetracycline-induced; membrane fraction
T1 sequence (Q9NPH5 1-578): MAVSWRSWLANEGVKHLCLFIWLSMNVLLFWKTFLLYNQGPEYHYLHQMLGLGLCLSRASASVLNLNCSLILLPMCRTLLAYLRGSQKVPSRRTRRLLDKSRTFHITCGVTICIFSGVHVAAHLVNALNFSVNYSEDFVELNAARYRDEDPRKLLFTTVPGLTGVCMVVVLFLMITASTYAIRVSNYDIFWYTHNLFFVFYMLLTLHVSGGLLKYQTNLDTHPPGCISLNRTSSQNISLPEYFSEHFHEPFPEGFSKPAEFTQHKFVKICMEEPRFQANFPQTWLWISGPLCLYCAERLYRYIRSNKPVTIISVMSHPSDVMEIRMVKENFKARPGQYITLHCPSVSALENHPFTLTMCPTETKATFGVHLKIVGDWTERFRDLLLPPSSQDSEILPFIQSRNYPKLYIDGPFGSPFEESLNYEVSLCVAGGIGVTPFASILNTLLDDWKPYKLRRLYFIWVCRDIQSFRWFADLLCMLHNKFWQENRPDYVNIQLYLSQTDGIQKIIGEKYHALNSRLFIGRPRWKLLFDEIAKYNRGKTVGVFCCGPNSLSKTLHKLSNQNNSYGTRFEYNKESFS
T1 sequence (P13498 2-195 partner limits assumed): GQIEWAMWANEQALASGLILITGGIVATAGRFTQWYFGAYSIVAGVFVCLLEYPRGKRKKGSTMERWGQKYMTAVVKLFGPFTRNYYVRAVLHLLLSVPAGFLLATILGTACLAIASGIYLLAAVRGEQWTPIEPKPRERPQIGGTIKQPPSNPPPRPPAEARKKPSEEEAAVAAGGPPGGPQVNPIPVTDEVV
Nature of the assay: ROS production by membranes expressing human Nox4, cell-free Amplex Red assay. Format: biochemical. The note with it: cell-free membranes, Amplex Red; Cheng-Prusoff; average of at least three experiments in triplicate; read-out: Ki hNox4. The text has this: The Nox4 activity of Nox4 inhibitors according to the invention may be tested for their activity in the inhibition or reduction of formation of reactive oxygen species (ROS) from oxygen in cell free assays. In order to fully characterise Nox4 inhibitors, Nox subunit-specific cell-free, membrane-based systems have been developed and specific recombinant proteins have been added to membranes heterologously over-expressing their specific iso form. Nox enzymes produce superoxide (O2.−) as primary product, however due to the high instability and reactivity of this molecule which dismutates naturally into hydrogen peroxide (H2O2), therefore, read-out techniques involving probes that do measure H2O2 were used (e.g. using Amplex Red as a probe in order to facilitate consistent and accurate measurements). The activity of the compounds is tested in the following cell free assay using the techniques described here below:
Transfected T-REx™-CHO cells (R718-07) purchased from Invitrogen and T-REx™-293 cell line expressing hNOX4 (hNOX4 T-REx™-293) (Serrander et al., 2007, Biochem. J., 406, 105-114) were cultured in […]. Both media were supplemented with 10% FBS, 2 mM glutamine, penicillin (100 U/ml) and streptomycin (100 μg/ml). Selection pressure was maintained by continuous inclusion of blasticidin (5 μg/ml), and/or G418 (0.25 mg/ml), and/or Hygromycin (0.25 mg/ml) and/or zeocin (0.025 mg/ml).
Human Nox1, Nox2, Nox4, and Nox5 expression were induced with Tetracycline (1 μg/ml) during 24 h prior to the membrane preparation Membranes from transfected cells overexpressing Nox1, Nox2, Nox4 or Nox5 were prepared as previously described in Palicz et al., 2001, J. Biol. Chem., 76, 3090-3097. After resuspension in sonication buffer (11% sucrose, 120 mM NaCl, 1 mM EGTA in PBS, pH 7.4 for Nox4- or NOX5-expressing cells) or in relax buffer (10 mM Pipes, 3 mM NaCl, 3.5 mM MgCl2, 0.1M KCl, pH 7.4), cells were broken by sonication and centrifuged (200 g, 10 min). The supernatant was layered onto a 17/40% (w/v) discontinuous sucrose gradient and centrifuged (150,000×g for 60 min). Membrane fractions were collected from the 17/40% interface and were stored at −80° C. Protein concentration was determined with the Bradford reagent.
Reactive Oxygen Species (ROS) production by membranes expressing either human Nox1, or human Nox2 or human Nox4 or human Nox5 or by xanthine/xanthine oxidase were measured using the Amplex Red (AR) method following a slightly modified version of the manufacturer's instruction manual (Invitrogen). Briefly, membranes or xanthine were incubated in PBS with Amplex Red, Horse Radish Peroxidase (HRP) and appropriated co-factors. ROS production was induced by addition of NADPH to NOX-expressing membrane or by addition of xanthine to xanthine oxidase. Non-specific signal was measured in the absence of membranes or in the absence of xanthine.
Antagonist activity of compounds was measured in the presence of increasing concentrations ranging from 1 nM to 100 μM. After an incubation of 20 min in a plate shaker and incubator (Titramax 1000, VWR) at 37° C. with weak agitation (300 rpm), ROS levels were measured for 10 min in a BMG Fluostar microplate reader with excitation and emission wavelengths of 544 nm and 590 nm respectively.
Data were analysed using Prism (GraphPad Software Inc., San Diego, Calif.). Ki values were calculated using the Cheng-Prusoff equation and represent the average of at least three individual experiments performed in triplicate (Table 1). Nox4 inhibition was compared to that measured for Simvastatin (Enzo Life Sciences, CAS Number 79902-63-9) using the method described in Example 1. Reactive Oxygen Species (ROS) production by membranes expressing human Nox4 was measured using the Amplex Red (AR).

The structures appear in SMILES notation. pKi: −log10 of the molar value.

As for `O=c1c2c(-c3cc(Cl)ccc3F)n(Cc3ccncc3)c(=O)cc2[nH]n1-c1ccccc1Cl` [(12), 4-(5-chloro-2-fluorophenyl)-2-(2-chlorophenyl)-5-(pyridin-4-ylmethyl)-1H-pyrazolo[4,3-c]pyridine-3,6(2H,5H)-dione], the pKi was 7.10.

With `COc1cccc(-c2c3c(=O)n(-c4ccccc4OC)[nH]c3cc(=O)n2Cc2ccn(C)n2)c1` [(20), 2-(2-methoxyphenyl)-4-(3-methoxyphenyl)-5-[(1-methyl-1H-pyrazol-3-yl)methyl]-1H-pyrazolo[4,3-c]pyridine-3,6(2H,5H)-dione], the negative-log Ki (pKi) is 7.03.

Regarding `COc1ccc(-c2c3c(=O)n(-c4ccccc4OC)[nH]c3cc(=O)n2Cc2ccn(C)n2)cc1` [(23), 2-(2-methoxyphenyl)-4-(4-methoxyphenyl)-5-[(1-methyl-1H-pyrazol-3-yl)methyl]-1H-pyrazolo[4,3-c]pyridine-3,6(2H,5H)-dione], the pKi is 7.01.

Take `COc1cccc(-c2c3c(=O)n(-c4ccccc4OC)[nH]c3cc(=O)n2Cc2cccnc2)c1` [(24), 2-(2-methoxyphenyl)-4-(3-methoxyphenyl)-5-(pyridin-3-ylmethyl)-1H-pyrazolo[4,3-c]pyridine-3,6(2H,5H)-dione]: the pKi is 7.00.

As to `O=c1c2c(-c3c(F)cccc3F)n(Cc3ccncc3)c(=O)cc2[nH]n1-c1ccccc1Cl` [(28), 2-(2-chlorophenyl)-4-(2,6-difluorophenyl)-5-(pyridin-4-ylmethyl)-1H-pyrazolo[4,3-c]pyridine-3,6(2H,5H)-dione], the pKi was 6.96.

In the case of `O=c1c2c(-c3cccc(Cl)c3F)n(Cc3ccncc3)c(=O)cc2[nH]n1-c1ccccc1Cl` [(31), 4-(3-chloro-2-fluorophenyl)-2-(2-chlorophenyl)-5-(pyridin-4-ylmethyl)-1H-pyrazolo[4,3-c]pyridine-3,6(2H,5H)-dione], the pKi was 6.95.

Turning to `COc1ccc(-c2c3c(=O)n(-c4ccccc4OC)[nH]c3cc(=O)n2Cc2cccnc2)cc1` [(33), 2-(2-methoxyphenyl)-4-(4-methoxyphenyl)-5-(pyridin-3-ylmethyl)-1H-pyrazolo[4,3-c]pyridine-3,6(2H,5H)-dione], the pKi was 6.94.

Take `O=c1c2c(-c3cccc(Cl)c3F)n(Cc3cccnc3)c(=O)cc2[nH]n1-c1ccccc1Cl` [(38), 4-(3-chloro-2-fluorophenyl)-2-(2-chlorophenyl)-5-(pyridin-3-ylmethyl)-1H-pyrazolo[4,3-c]pyridine-3,6(2H,5H)-dione]: the pKi was 6.89.

With `O=c1c2c(-c3c(F)cccc3F)n(Cc3cccnc3)c(=O)cc2[nH]n1-c1ccccc1Cl` [(40), 2-(2-chlorophenyl)-4-(2,6-difluorophenyl)-5-(pyridin-3-ylmethyl)-1H-pyrazolo[4,3-c]pyridine-3,6(2H,5H)-dione], the negative logarithm of the Ki (pKi) was 6.83.

For the compound `COc1ccc(F)c(-c2c3c(=O)n(-c4ccccc4OC)[nH]c3cc(=O)n2Cc2cnccn2)c1` [(41), 4-(2-fluoro-5-methoxyphenyl)-2-(2-methoxyphenyl)-5-(pyrazin-2-ylmethyl)-1H-pyrazolo[4,3-c]pyridine-3,6(2H,5H)-dione], the pKi was 6.83.

As for `CN(C)c1cccc(-c2c3c(=O)n(-c4ccccc4Cl)[nH]c3cc(=O)n2Cc2ccn(C)n2)c1` [(43), 2-(2-chlorophenyl)-4-[3-(dimethylamino)phenyl]-5-[(1-methyl-1H-pyrazol-3-yl)methyl]-1H-pyrazolo[4,3-c]pyridine-3,6(2H,5H)-dione], the pKi was 6.90.

(Values after patent publication US20140323500A1, “NADPH OXIDASE 4 INHIBITORS AND USE THEREOF” (GENKYOTEX SA, priority 2011, published 2014).)
